Test results as given in ChEMBL document CHEMBL5360658, “Discovery of MK-8768, a Potent and Selective mGluR2 Negative Allosteric Modulator” (ACS Med Chem Lett, 2023).
≈ marks a conversion by molar mass, not a printed value.

Key:
[1] = Volume of distribution in dog at 0.25 mg/kg, iv; assay type: ADME, organism-based, Canis lupus familiaris; conditions: in vivo
[2] = Volume of distribution in rat at 1 mg/kg, iv; assay type: ADME, organism-based; conditions: in vivo
[3] = Oral bioavailability in rat at 2 mg/kg; assay type: ADME, organism-based; conditions: in vivo
[4] = molecular target: Metabotropic glutamate receptor 8 (Homo sapiens, UniProt O00222); assay: Negative allosteric modulation at mGluR8 receptor (unknown origin) assessed as effect on intracellular calcium flux measured after 5 min by Fluo-4AM dye based FLIPR analysis; assay type: functional, cell-based
[5] = Oral bioavailability in dog at 0.5 mg/kg; assay type: ADME, organism-based, Canis lupus familiaris; conditions: in vivo
[6] = Fraction unbound in dog plasma; assay type: ADME, cell-free, Canis lupus familiaris
Cytochrome P450 1A2 = molecular target: T1, Cytochrome P450 1A2 (Homo sapiens, UniProt P05177); assay: […] of CYP1A2 (unknown origin); assay type: ADME
T1 sequence (P05177 whole entry): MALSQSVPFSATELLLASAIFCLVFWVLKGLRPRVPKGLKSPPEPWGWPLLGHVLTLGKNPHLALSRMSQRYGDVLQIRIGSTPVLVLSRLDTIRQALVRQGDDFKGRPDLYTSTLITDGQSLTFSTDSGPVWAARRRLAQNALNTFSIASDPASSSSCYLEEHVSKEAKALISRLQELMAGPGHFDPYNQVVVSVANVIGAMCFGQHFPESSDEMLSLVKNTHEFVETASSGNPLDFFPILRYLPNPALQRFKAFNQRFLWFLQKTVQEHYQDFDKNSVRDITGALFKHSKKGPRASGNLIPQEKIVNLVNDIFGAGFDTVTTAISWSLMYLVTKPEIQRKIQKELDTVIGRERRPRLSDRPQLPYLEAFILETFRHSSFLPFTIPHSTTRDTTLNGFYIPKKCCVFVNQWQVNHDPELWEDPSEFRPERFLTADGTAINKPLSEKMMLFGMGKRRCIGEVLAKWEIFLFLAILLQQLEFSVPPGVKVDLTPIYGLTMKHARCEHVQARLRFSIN

[7] = Unbound plasma concentration in rhesus monkey at 0.01 to 1 mg/kg, IM; assay type: ADME, organism-based, Macaca mulatta; conditions: in vivo, dose 0.01-1 mg/kg
[8] = molecular target: Metabotropic glutamate receptor 6 (Homo sapiens, UniProt O15303); assay: Negative allosteric modulation at mGluR6 receptor (unknown origin) assessed as effect on intracellular calcium flux measured after 5 min by Fluo-4AM dye based FLIPR analysis; assay type: functional, cell-based
Cytochrome P450 2D6 = Cytochrome P450 2D6 (Homo sapiens, UniProt P10635); assay: […] of CYP2D6 (unknown origin); assay type: ADME
[9] = Effective half life in rat at 1 mg/kg, iv; assay type: ADME, organism-based; conditions: in vivo, read-out: t1/2eff (converted)
[10] = Solubility of the compound in FaSSIF; assay type: physicochemical
[11] = Clearance in monkey at 0.5 mg/kg, iv; assay type: ADME, organism-based, Macaca mulatta; conditions: rhesus monkey, in vivo
Cytochrome P450 2C8 = molecular target: T2, Cytochrome P450 2C8 (Homo sapiens, UniProt P10632); assay: […] of CYP2C8 (unknown origin); assay type: ADME
T2 sequence (P10632 whole entry): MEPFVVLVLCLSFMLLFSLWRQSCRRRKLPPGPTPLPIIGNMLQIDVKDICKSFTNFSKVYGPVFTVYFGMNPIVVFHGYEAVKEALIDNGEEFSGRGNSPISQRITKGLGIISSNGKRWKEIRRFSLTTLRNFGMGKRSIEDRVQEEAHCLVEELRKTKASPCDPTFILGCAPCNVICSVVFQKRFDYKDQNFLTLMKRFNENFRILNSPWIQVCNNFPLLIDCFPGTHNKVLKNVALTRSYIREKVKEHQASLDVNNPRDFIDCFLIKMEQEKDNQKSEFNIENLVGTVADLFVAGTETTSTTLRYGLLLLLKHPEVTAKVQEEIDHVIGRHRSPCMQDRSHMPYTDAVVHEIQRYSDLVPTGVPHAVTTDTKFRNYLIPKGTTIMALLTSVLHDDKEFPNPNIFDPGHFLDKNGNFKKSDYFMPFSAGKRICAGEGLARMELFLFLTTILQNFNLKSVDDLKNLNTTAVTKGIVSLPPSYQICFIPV

Cytochrome P450 2B6 = molecular target: T3, Cytochrome P450 2B6 (Homo sapiens, UniProt P20813); assay: […] of CYP2B6 (unknown origin); assay type: ADME
T3 sequence (P20813 whole entry): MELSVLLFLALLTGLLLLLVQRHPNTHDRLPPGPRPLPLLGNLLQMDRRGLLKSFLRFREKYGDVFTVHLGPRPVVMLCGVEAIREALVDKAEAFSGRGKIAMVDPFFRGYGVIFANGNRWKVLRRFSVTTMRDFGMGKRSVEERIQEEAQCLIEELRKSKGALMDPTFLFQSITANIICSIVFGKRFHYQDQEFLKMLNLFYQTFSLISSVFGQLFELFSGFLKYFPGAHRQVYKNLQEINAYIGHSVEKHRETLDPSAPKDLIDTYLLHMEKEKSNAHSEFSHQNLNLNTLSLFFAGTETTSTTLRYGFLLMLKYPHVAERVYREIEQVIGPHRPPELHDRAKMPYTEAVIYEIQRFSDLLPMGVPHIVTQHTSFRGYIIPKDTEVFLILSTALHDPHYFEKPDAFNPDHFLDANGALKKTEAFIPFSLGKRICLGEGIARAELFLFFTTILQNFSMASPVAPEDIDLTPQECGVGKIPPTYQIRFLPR

[12] = molecular target: Metabotropic glutamate receptor 4 (Homo sapiens, UniProt Q14833); assay: Negative allosteric modulation at mGluR4 receptor (unknown origin) assessed as effect on intracellular calcium flux measured after 5 min by Fluo-4AM dye based FLIPR analysis; assay type: functional, cell-based
[13] = Solubility of the compound in SGF buffer; assay type: physicochemical
[14] = Clearance in dog at 0.25 mg/kg, iv; assay type: ADME, organism-based, Canis lupus familiaris; conditions: in vivo
[15] = Volume of distribution in monkey at 0.5 mg/kg, iv; assay type: ADME, organism-based, Macaca mulatta; conditions: rhesus monkey, in vivo
[16] = Solubility of the compound in FeSSIF; assay type: physicochemical
[17] = Effective half life in dog at 0.25 mg/kg, iv; assay type: ADME, organism-based, Canis lupus familiaris; conditions: in vivo, read-out: t1/2eff (converted)
[18] = molecular target: Metabotropic glutamate receptor 1 (Homo sapiens, UniProt Q13255); assay: Negative allosteric modulation at mGluR1 receptor (unknown origin) assessed as effect on intracellular calcium flux measured after 5 min by Fluo-4AM dye based FLIPR analysis; assay type: functional, cell-based
Cytochrome P450 2C9 = Cytochrome P450 2C9 (Homo sapiens, UniProt P11712); assay: […] of CYP2C9 (unknown origin); assay type: ADME
[19] = molecular target: Voltage-gated inwardly rectifying potassium channel KCNH2 (Homo sapiens, UniProt Q12809); assay: Displacement of [35S]-MK-499 from hERG expressed in HEK293 cells […]; assay type: toxicity, cell-based
[20] = Fraction unbound in rat plasma; assay type: ADME, cell-free
[21] = Apparent permeability in […] LLC-MDR1 cell; assay type: ADME, cell-based; conditions: LLC-PK1
[22] = Mutagenicity in Salmonella typhimurium in presence of S9 fraction by Ames test; assay type: toxicity, subcellular; conditions: salmonella enterica subsp. enterica serovar typhimurium
Cytochrome P450 3A4 = Cytochrome P450 3A4 (Homo sapiens, UniProt P08684); assay: […] of CYP3A4 (unknown origin); assay type: ADME
[23] = Fraction unbound in monkey plasma; assay type: ADME, cell-free, Macaca mulatta; conditions: rhesus monkey
Cytochrome P450 2C19 = Cytochrome P450 2C19 (Homo sapiens, UniProt P33261); assay: […] of CYP2C19 (unknown origin); assay type: ADME
[24] = Fraction unbound in human plasma; assay type: ADME, cell-free
[25] = Effective half life in monkey at 0.5 mg/kg, iv; assay type: ADME, organism-based, Macaca mulatta; conditions: rhesus monkey, in vivo, read-out: t1/2eff (converted)
[26] = Clearance in rat at 1 mg/kg, iv; assay type: ADME, organism-based; conditions: in vivo

Chain of Metabotropic glutamate receptor 8 (O00222 whole entry): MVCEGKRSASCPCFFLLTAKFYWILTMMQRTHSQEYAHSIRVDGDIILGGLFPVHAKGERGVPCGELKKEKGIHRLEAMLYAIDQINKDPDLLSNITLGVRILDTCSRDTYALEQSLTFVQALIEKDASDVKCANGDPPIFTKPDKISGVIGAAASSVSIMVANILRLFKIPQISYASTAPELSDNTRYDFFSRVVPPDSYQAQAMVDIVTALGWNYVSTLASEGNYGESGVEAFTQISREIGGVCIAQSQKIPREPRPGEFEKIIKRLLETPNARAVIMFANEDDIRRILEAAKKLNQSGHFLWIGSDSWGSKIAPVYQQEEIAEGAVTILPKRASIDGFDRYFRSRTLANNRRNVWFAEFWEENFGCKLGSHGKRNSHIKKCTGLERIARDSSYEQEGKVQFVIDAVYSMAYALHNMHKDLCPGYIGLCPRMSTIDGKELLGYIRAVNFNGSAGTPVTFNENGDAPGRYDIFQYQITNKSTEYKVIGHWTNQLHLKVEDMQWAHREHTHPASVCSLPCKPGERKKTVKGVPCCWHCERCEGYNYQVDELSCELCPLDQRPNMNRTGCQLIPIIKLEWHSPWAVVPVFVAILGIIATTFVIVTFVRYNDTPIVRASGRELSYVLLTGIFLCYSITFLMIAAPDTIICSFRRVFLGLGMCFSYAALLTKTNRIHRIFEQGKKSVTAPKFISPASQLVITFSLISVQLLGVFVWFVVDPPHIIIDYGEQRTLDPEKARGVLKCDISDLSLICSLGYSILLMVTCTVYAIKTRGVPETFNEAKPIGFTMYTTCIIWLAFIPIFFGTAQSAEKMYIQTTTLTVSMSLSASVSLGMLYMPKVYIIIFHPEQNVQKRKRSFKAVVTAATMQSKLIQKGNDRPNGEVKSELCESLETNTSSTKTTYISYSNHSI
Chain of Metabotropic glutamate receptor 1 (Q13255 whole entry): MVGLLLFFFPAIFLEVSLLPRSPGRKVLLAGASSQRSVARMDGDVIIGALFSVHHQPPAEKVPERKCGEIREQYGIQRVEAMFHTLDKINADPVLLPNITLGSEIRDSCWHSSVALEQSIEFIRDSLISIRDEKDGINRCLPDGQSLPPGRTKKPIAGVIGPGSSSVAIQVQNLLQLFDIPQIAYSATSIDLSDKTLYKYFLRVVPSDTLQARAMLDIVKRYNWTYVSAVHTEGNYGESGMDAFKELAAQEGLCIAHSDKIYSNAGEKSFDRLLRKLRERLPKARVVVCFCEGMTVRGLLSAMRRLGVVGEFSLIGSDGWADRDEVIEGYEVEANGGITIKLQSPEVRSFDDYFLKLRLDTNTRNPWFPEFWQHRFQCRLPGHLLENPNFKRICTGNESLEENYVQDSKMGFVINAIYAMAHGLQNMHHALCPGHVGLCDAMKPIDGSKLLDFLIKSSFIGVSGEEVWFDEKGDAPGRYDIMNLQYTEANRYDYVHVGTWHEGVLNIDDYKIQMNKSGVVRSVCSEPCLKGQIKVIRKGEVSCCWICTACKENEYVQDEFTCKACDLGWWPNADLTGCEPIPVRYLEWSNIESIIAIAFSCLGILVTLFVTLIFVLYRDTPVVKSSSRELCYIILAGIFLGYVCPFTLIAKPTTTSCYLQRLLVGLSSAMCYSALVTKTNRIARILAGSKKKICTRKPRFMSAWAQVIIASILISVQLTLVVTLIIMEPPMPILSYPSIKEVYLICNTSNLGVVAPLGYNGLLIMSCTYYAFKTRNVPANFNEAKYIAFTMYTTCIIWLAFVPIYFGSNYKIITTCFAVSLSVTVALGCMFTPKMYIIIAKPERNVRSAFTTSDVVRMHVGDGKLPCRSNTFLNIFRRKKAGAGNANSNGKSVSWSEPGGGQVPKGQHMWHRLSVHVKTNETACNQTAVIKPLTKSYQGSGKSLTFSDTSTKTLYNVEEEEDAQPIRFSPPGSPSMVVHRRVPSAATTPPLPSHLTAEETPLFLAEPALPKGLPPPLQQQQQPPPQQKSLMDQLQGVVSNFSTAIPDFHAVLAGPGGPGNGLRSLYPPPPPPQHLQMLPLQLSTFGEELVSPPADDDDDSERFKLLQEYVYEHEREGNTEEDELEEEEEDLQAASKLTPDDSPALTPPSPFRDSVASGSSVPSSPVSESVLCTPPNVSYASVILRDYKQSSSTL
Chain of Cytochrome P450 2C19 (P33261 whole entry): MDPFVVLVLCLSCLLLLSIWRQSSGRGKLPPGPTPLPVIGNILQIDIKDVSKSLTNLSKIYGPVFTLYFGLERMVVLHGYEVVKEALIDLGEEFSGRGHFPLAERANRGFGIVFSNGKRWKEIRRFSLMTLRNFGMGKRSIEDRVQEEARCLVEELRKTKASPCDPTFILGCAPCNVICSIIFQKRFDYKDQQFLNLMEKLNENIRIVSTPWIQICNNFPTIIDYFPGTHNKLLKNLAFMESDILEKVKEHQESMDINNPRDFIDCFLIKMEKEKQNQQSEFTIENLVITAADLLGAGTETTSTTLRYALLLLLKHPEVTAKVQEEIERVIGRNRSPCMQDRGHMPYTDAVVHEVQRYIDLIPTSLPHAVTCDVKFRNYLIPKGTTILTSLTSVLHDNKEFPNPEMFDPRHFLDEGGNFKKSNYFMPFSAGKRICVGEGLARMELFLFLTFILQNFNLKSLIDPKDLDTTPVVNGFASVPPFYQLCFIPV
Chain of Cytochrome P450 2D6 (P10635 whole entry): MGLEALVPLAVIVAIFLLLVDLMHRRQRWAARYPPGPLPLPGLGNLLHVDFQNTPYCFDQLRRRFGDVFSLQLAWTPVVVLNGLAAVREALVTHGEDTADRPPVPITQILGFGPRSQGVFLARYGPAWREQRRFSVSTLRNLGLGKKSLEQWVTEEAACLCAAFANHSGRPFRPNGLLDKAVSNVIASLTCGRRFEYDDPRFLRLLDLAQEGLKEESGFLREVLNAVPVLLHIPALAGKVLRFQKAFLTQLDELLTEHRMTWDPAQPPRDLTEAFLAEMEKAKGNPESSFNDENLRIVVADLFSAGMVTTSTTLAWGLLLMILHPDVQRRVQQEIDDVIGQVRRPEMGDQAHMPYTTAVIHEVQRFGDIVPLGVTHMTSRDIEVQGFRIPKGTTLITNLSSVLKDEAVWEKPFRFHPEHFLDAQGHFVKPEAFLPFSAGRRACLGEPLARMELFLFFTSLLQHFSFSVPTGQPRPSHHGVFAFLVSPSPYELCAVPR
Chain of Metabotropic glutamate receptor 4 (Q14833 whole entry): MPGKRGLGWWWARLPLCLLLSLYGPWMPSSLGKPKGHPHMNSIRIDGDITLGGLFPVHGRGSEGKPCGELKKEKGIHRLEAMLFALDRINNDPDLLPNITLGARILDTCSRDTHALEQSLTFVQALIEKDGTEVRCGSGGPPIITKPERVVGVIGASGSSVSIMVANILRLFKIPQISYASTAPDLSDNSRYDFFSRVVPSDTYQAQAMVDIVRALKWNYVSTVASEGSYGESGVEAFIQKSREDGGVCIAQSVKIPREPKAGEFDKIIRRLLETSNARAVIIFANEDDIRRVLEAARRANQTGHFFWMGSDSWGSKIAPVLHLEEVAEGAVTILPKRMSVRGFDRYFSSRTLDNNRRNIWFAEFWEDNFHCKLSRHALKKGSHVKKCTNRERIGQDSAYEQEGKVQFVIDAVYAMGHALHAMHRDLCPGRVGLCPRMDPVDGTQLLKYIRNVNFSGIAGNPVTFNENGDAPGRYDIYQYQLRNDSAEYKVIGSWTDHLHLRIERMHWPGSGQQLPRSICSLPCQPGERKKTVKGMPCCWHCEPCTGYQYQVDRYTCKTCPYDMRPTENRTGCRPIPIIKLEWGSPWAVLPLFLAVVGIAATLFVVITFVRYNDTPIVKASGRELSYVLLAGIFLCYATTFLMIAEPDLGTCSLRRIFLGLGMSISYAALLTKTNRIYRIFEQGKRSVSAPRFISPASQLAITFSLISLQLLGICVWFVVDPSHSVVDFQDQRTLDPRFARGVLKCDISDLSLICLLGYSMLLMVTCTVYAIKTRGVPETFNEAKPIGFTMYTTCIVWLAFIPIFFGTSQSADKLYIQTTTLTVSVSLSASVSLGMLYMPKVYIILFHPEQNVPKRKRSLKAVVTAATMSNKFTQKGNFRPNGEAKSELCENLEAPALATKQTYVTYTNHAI
Chain of Metabotropic glutamate receptor 6 (O15303 whole entry): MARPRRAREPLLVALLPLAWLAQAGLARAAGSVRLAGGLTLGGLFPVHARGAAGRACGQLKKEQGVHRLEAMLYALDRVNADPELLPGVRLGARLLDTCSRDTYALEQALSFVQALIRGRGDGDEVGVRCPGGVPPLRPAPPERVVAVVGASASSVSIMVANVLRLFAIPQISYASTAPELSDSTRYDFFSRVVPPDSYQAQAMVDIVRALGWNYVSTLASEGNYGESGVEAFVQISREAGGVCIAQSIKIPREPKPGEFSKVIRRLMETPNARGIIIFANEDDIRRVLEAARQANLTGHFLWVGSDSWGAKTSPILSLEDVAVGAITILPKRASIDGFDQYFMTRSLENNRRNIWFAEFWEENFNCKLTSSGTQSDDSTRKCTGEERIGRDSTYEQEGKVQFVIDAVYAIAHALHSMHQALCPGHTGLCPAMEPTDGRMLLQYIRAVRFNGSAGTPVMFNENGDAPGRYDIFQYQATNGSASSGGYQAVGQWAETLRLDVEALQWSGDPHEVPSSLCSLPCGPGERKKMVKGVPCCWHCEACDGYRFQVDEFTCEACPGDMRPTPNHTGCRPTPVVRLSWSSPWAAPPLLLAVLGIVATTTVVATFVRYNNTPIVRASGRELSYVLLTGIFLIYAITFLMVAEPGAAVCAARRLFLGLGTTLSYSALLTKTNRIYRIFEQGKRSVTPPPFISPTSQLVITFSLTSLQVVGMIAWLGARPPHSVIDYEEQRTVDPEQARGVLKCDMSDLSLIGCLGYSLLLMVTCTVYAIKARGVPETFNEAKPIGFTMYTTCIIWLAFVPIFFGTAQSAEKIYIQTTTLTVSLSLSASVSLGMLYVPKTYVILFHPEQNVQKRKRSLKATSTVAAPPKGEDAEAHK

Vd [1]: 7.3 L/kg
Vd [2]: 5.7 L/kg
bioavailability [3]: 32%
IC50 [4]: > 10 µM
bioavailability [5]: 34%
fraction unbound [6]: 0.045
IC50 (Cytochrome P450 1A2): > 26 µM
Cp(f) [7]: 3 nM
IC50 [8]: > 10 µM
IC50 (Cytochrome P450 2D6): > 26 µM
half-life [9]: 1.8 h
solubility [10]: 440 µg/mL (≈ 1.02 mM)
clearance [11]: 22 mL/min/kg
IC50 (Cytochrome P450 2C8): > 26 µM
IC50 (Cytochrome P450 2B6): > 26 µM
IC50 [12]: > 10 µM
solubility [13]: 4100 µg/mL (≈ 9.46 mM)
clearance [14]: 24 mL/min/kg
Vd [15]: 3.2 L/kg
solubility [16]: 2100 µg/mL (≈ 4.85 mM)
half-life [17]: 3.3 h
IC50 [18]: > 10 µM
IC50 (Cytochrome P450 2C9): > 26 µM
fraction unbound [20]: 0.04
Papp [21]: 32 ×10⁻⁶ cm/s
IC50 (Cytochrome P450 3A4): > 26 µM
fraction unbound [23]: 0.043
IC50 (Cytochrome P450 2C19): > 26 µM
fraction unbound [24]: 0.025
half-life [25]: 1.7 h
clearance [26]: 36 mL/min/kg
Structure (SMILES): C[C@@H]1CN(Cc2ccc3c(-c4cnn(C)c4)cc(C(N)=O)nc3c2)C[C@H](C(F)(F)F)O1
IC50 [19]: 22 µM
Activity [22]: Non-Toxic
